# Measurements as given in patent US20100249175A1, “Dicationic compounds which selectively recognize G-quadruplex DNA” (priority 2005, published 2010).
# Tested on: STIB 900 strain of Trypanosoma brucei rhodesiense (T. b. r.)
# Experiment: In vivo T. b. r. STIB 900 mouse model
# Conditions: 20 mg/kg ip
# Procedure: Groups of four mice were infected intraperitoneally with 2×10^5 bloodstream forms of T. b. r. STIB 900 which originates from a patient in Tanzania. On days 3, 4, 5, and 6 post-infection the experimental groups were treated with the drugs either by the intraperitoneal or for prodrugs by the oral route. Usually the highest tolerated dose was used which was determined in a pretoxicological experiment. Parasitemia of the mice was checked daily up to day 14 post-infection and thereafter 2 times per week up to day 60. One group of mice was not treated and acted as control. For relapsing mice, the day of death was recorded and the survival time determined.
compound,measurement,setting,value
"N=C(N)c1ccc(-c2ccc(-c3ccc(C(=N)N)o3)o2)cc1 [Compound 8, 5′-(4-Amidinophenyl)-2,2′-bifuran-5-carboxamidine]",In Vivo T.b.r. cures,"mice cured / mice infected, days 3-6 post-infection",2/4
same,In Vivo T.b.r. survival time,observation up to day 60,> 45.5 days
